“And” between values parts separate entries of the source, which are not always exact repeats. Identical values can stand only once.
How the values were obtained:
[1] = tested on: L. crispatus; assay: High throughput assay screening of prebiotics; type: cell-based, Lactobacillus crispatus; set-up: key: ++: if growth and fermentation was equal to or greater than the positive control; +: if growth and fermentation was less than the positive control; +: if weak or no growth or fermentation; +^2: Bacteria demonstrated growth but no fermentation on the prebiotic; details: 2% w/v prebiotic in API 50 CHL media; for growth and fermentation vs positive control, Lc-4: L. crispatus KC18-1174-1, Vagina
Summary of the method: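 Prebiotic or glucose/dextrose positive control in API 50 CHL minimal-carbon medium with bromocresol purple, inoculated with bacterial suspension (0.5 McFarland streptococci/enterococci, 1 McFarland lactobacilli). Read every 20 min for 24-48 h; OD430 rise/OD590 fall marks fermentation, OD660 rise marks growth, scored versus positive control.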

[2] = tested on: E. coli; assay: Additional prebiotic screening against E. coli; type: cell-based, Escherichia coli; details: for # fermented, Ec-1 / # grew, Ec-1: E. coli KC16-7171-8, Bladder; for # fermented, Ec-1 / # grew, Ec-1 / # fermented, Ec-2 / # grew, Ec-2 / # fermented, Ec-3 / # grew, Ec-3 / # fermented, Ec-4 / # grew, Ec-4 / # fermented, Ec-5 / # grew, Ec-5: of 2 tested; for # fermented, Ec-2 / # grew, Ec-2: E. coli KC17-3969-1, Bladder; for # fermented, Ec-3 / # grew, Ec-3: E. coli KC17-3970-4, Vagina; for # fermented, Ec-4 / # grew, Ec-4: E. coli KC17-4296-4, Vagina; for # fermented, Ec-5 / # grew, Ec-5: E. coli KC17-4297-5, Bladder; for growth or fermentation of E. coli, in words: E. coli from vaginal or bladder source
Description: Additional screening of three prebiotic compounds of alpha-methyl-D-glucoside, isomaltulose, and alpha cyclodextrin was completed against pathogenic bacteria species Escherichia coli from both bladder and vaginal sources, as shown in Table 4. The growth of the bacterial species for this additional screening process against E. coli was not compared to growth of a control as in the screening process documented in Table 3, but was documented based on growth or no growth for the number of samples tested.
• 1. Create a 2% w/v stock of prebiotic or positive control (glucose/dextrose) to be tested in API 50 CHL media (Biomerieux, Marcy-I'Étoile, France). API 50 CHL media contains minimal amounts of carbon for growth, and a bromocresol purple as a pH indicator of fermentation. Filter sterilize media with a […]. Store at 4-6° C. until use. • 2. Add 180 μL of media containing the prebiotic to a sterile, flat bottom 96-well microtiter plate (Corning, Corning, NY). • 3. From a freezer stock subculture the bacteria twice into De Man, Rogosa and Sharpe (MRS) broth (BD Difco, Becton Dickinson, Franklin Lakes, NJ), 37° C., stationary, anaerobic, overnight. • 4. From the last subculture, plate onto an MRS agar plate (Teknova, Hollister, CA) and grow 37° C., stationary, anaerobic, overnight. • 5. Create a bacterial suspension by using a sterile tipped swab to transfer colonies of bacteria into a PBS suspension blank to a 0.5 MacFarland (S. anginosus or E. faecalis) or a 1 MacFarland (Lactobacillus species) from the MRS agar plate. • 6. Enumerate the starting culture. • 7. Inoculate the media alone and media containing the prebiotic or positive control with 20 μL of the bacterial suspension. • 8. Place the plate into a spectrophotometer (Molecular Devices, San Jose, CA) and read the plate every 20 minutes for 24-48 hours. Read wavelengths (OD 430, OD 590, and OD 660). A color change to yellow caused by a drop in pH will be read by an increase in the OD430 value and a decrease in the OD590 value and is indicative of bacterial fermentation. An increase in OD660 values is indicative of an increase in turbidity and bacterial growth.

[3] = tested on: ratio of L. crispatus/S. anginosus; assay: Therapeutic effect protocol (competition assay); type: cell-based, Lactobacillus crispatus; Streptococcus anginosus; details: Lc-3 vs Sa-2
Description: As used herein, the term “therapeutic effect” refers to the ability of the compositions and formulations of the present disclosure to stimulate the growth of L. crispatus relative S. anginosus measured according to the therapeutic effect protocol described below. The therapeutic effect can be expressed as a ratio of L. crispatus to S. anginosus and is desirably greater than about 100, more preferably greater than about 500 and more desirably greater than about 1,000.
Further testing was conducted to put the prebiotic compounds in competition assay testing, as further described in the test methods section herein. In the competition assay testing, each competition involved testing a single prebiotic compound with the commensal bacteria species of L. crispatus, KC18-1173-1, Bladder (“Lc-3”—Table 2) against the pathogenic bacterial species of S. anginosus, KC18-1131-3B, Bladder (“Sa-2”—Table 2).
• 1. An in house bacterial agar was created based on MRS agar (Kaplan and Hutkins, 2000) where the glucose is substituted for the prebiotic to be tested (either dextran MW ˜6,000, alpha-cyclodextrin, glucomannan, or pectin), bromocresol purple was included as a pH indicator. • 2. Bacteria were enumerated on each agar and color changes were recorded. Method for Competition Assay (Modified from “In Vitro Evaluation of Nutrients that Selectively Confer a Competitive Advantage to Lactobacilli” Vongsa et al, Beneficial Microbes 2016) • 1. Create 2% w/v stock of prebiotic or positive control (glucose/dextrose) as described above. • 2. From a freezer stock subculture the bacteria twice into De Man, Rogosa and Sharpe (MRS) broth (BD Difco, Becton Dickinson, Franklin Lakes, NJ), 37° C., stationary, anaerobic, overnight. • 3. From the last subculture, plate onto an MRS agar plate for L. crispatus KC18-1173-1 or blood agar for S. anginosus KC18-1131-3B, grow 37° C., stationary, anaerobic, overnight. • 4. Create a bacterial suspension by using a sterile tipped swab to transfer colonies of bacteria into a PBS suspension blank to a 2 MacFarland for both species. • 5. Enumerate the starting culture. • 6. Add 9.8 mL of prebiotic media into a 15 mL conical tube. • 7. Add 100 μL of the diluted bacteria to the media, incubate at 37° C., anaerobic, 48 hours. • 8. Harvest 100 μL from the tube containing the prebiotic and plate onto MRS agar and tryptic soy agar (TSA). • 9. Enumerate the bacteria on the MRS agar (both the L. crispatus and the S. anginosus). Small colonies are counted as S. anginosus and large colonies are counted as L. crispatus. • 10. Enumerate the bacteria on the TSA plate. […] Growth of the bacteria in the negative control (CHL media without prebiotic) was subtracted from the growth in the presence of the prebiotic or formulation.
Colonies of L. crispatus and S. anginosus were tested against in the competition method assay test method as described above. The therapeutic effect was calculated by comparing the colony forming units recovered after the competition assay of both L. crispatus and S. anginosus and calculating the ratio of L. crispatus/S. anginosus. A larger number indicates an increase in L. crispatus and/or a decrease in S. anginosus and a smaller number indicates a decrease in L. crispatus and/or an increase in S. anginosus.

SMILES | growth and fermentation vs positive control, Lc-2 ([1]; L. crispatus KC16-7134-3C, Bladder) | growth and fermentation vs positive control, Lc-4 [1] | # fermented, Ec-1 [2] | # grew, Ec-1 [2] | # fermented, Ec-2 [2] | # grew, Ec-2 [2] | # fermented, Ec-3 [2] | # grew, Ec-3 [2] | # fermented, Ec-4 [2] | # grew, Ec-4 [2] | # fermented, Ec-5 [2] | # grew, Ec-5 [2] | growth or fermentation of E. coli, in words [2] | Therapeutic Effect (ratio of L. crispatus/S. anginosus) ([3]; Table 6, prebiotic 2%) | growth and fermentation vs positive control, Lc-3 ([1]; L. crispatus KC18-1173-1, Bladder) | outcome of the bacterial competition assay, in words ([3]; Tables 6 and 7)
CO[C@H]1O[C@H](CO)[C@@H](O)[C@H](O)[C@H]1O [Alpha-Methyl-D-Glucoside] | + | + | 0 | 0 | 0 | 0 | 0 | 0 | 0 | 0 | 0 | 0 | did not grow or ferment | 1.21E−01 (2×) and 1.74E−01 (2×) | – | –
OC[C@H]1O[C@H](OC[C@H]2OC(O)(CO)[C@@H](O)[C@@H]2O)[C@H](O)[C@@H](O)[C@@H]1O (stereo partly shown) [Palatinose (isomaltulose), isomaltulose] | – | ++ | 0 | 0 | 0 | 0 | 0 | 0 | 0 | 0 | 0 | 0 | did not grow or ferment | – | ++ | supported the growth of Lactobacillus crispatus over Streptococcus anginosus
